Test results taken from paper PMC4413848, “Antibacterial activity of alkyl gallates is a combination of direct targeting of FtsZ and permeabilization of bacterial membranes” (Frontiers in Microbiology, 2015).

Experiments:
[1] = biological target: T1, FtsZ (Bacillus subtilis, UniProt P17865); assay: fluorescence titration with purified FtsZ (poorer fit, R^[…] = […]); also GTPase inhibition and sedimentation; format: binding
T1 sequence (P17865 1-382): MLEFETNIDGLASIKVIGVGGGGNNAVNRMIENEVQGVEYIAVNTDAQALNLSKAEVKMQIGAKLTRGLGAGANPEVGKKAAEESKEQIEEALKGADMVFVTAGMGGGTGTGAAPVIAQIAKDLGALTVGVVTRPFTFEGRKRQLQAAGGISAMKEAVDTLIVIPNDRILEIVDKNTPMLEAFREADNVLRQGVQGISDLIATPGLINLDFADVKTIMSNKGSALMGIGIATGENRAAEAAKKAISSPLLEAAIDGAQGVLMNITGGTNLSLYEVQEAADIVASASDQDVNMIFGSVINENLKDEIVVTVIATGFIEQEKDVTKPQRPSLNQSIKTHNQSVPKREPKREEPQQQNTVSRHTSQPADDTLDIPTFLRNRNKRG

[2] = biological target: T1, FtsZ; assay: malachite green GTPase assay at […] with Triton X-100 (Kd could not be calculated); format: biochemical
[3] = biological target: T1, FtsZ; assay: fluorescence titration (intrinsic alkyl gallate fluorescence) with purified FtsZ; also GTPase inhibition and sedimentation; format: binding

Row | Structure (SMILES) | Kd [3] | further results
1 | CCCCCOC(=O)c1cc(O)c(O)c(O)c1 [compound 8, Pentyl gallate] | – | Kd [1]: ~3100 nM
2 | CCCCCCOC(=O)c1cc(O)c(O)c(O)c1 [compound 9, Hexyl gallate] | – | malachite green GTPase assay at 50 μg/mL with Triton X-100 (Kd could not be calc) [2]: All of the compounds showed similar levels of inhibition of the GTPase activity of FtsZ.
3 | CCCCCCCOC(=O)c1cc(O)c(O)c(O)c1 [compound 10, Heptyl gallate] | 80 ± 30 nM | –
4 | CCCCCCCCOC(=O)c1cc(O)c(O)c(O)c1 [compound 11, Octyl gallate] | 840 ± 220 nM | –
